Experimental data published in patent US4988723A, “Benzopyran derivatives and their use as anti-hypertensives” (Fujisawa Pharmaceutical Co., Ltd., priority 1988, dated 1991).

Tests used:
[1] = tested on: normotensive rats (male Wistar strain); test: Effect on normotensive rats (hypotensive activity, mean arterial pressure after intravenous dosing); assay type: in vivo, rat; conditions: 1.0 mg/kg intravenously
Protocol: Male Wistar strain rats aged 10-11 weeks, weighing about 250 g were used after going unfed overnight. Under ether anesthesia, polyethylene cannula were inserted in the femoral artery for measuring blood pressure and in the femoral vein for injection of the test compound. About 2 hours after the operation, test compound was given intravenously. Blood pressure was measured at the femoral artery by means of a pressure transducer and recorded as electrically integrated values of mean arterial pressure.

[2] = tested on: spontaneous hypertensive rats; test: Effect on spontaneous hypertensive rats (hypotensive activity, mean blood pressure after oral dosing); assay type: in vivo, rat
Protocol: 14 to 17-week-old male spontaneous hypertensive rats with mean arterial blood pressure of about 150 mmHg, weighing 300-375 g, were used. The animals were cannulated in the left femoral artery and the mean blood pressure and heart rate were measured with a pressure-transducer. The drugs were given orally. The animals were deprived of food for about 18 hours before oral dosing. The test drugs were suspended in 0.5% methylcellulose, and given in oral dose of 0.1 mg/kg and 1.0 mg/kg.

CN1CCN([C@@H]2c3cc(C#N)ccc3OC(C)(C)[C@H]2O)C1=NC#N (relative stereo) [trans-4-(2-Cyanoimino-3-methylimidazolidin-1-yl)-3,4-dihydro-3-hydroxy-2,2-dimethyl-2H-1-benzopyran-6-carbonitrile]
Effect Max (maximum decrease of blood pressure, mean ratio) [1]: 48.0%

CC1(C)Oc2ccc(C#N)cc2[C@@H](N2CCSC2=NC#N)[C@@H]1O [(3S,4R)-4-(2-Cyanoiminothiazolidin-3-yl)-3,4-dihydro-3-hydroxy-2,2-dimethyl-2H-1-benzopyran-6-carbonitrile]
Effect max (maximum decrease of blood pressure, mean ratio) ([2]; 0.1 mg/kg orally): 20.7% | T 1/2 (duration of half of maximum decrease of blood pressure) ([2]; 0.1 mg/kg orally): 2.25 h | Effect max (maximum decrease of blood pressure, mean ratio) ([2]; 1.0 mg/kg orally): 60.0% | T 1/2 (duration of half of maximum decrease of blood pressure) ([2]; 1.0 mg/kg orally): 3.75 h
